In patent publication US12419865B2 (priority 2018, dated 2025):
Read-outs that look alike come from different tables or passages of the source.

What was measured:
[1] = system: LASV-p; experiment: microbe, parasite or virus in culture; format: cell-based, Lassa (LASV); settings: Vesicular stomatitis virus, Vero, read-out: LASV-p EC50
[2] = system: MACV-p; experiment: organism not typed; format: cell-based, Machupo (MACV); settings: Vero, read-out: MACV-p EC50
[3] = system: JUNV-p; experiment: organism not typed; format: cell-based, Junin (JUNV); settings: Vero, read-out: JUNV-p EC50
[4] = system: TCRV-p; experiment: organism not typed; format: cell-based; settings: read-out: TCRV-p EC50
[5] = system: GTOV-p; experiment: organism not typed; format: cell-based, Guanarito (GTOV); settings: Vero, read-out: GTOV-p EC50
[6] = system: VSV-p; experiment: microbe, parasite or virus in culture; format: cell-based; settings: Vesicular stomatitis virus, Vero, read-out: VSV-p EC50
[7] = system: native replicating Tacaribe (TCRV) virus; experiment: microbe, parasite or virus in culture; format: cell-based; settings: Mammarenavirus tacaribeense, Vero, 120 h, read-out: TCRV EC50
[8] = system: replicative LASV; experiment: microbe, parasite or virus in culture; format: cell-based, Lassa Virus; settings: Mammarenavirus lassaense
[9] = system: replicative LASV; experiment: microbe, parasite or virus in culture; format: cell-based, Lassa Virus; settings: for EC90: Mammarenavirus lassaense
[10] = target: hERG channel (Homo sapiens, UniProt Q12809); settings: pH 7.4
Chain of hERG channel (Q12809 whole entry): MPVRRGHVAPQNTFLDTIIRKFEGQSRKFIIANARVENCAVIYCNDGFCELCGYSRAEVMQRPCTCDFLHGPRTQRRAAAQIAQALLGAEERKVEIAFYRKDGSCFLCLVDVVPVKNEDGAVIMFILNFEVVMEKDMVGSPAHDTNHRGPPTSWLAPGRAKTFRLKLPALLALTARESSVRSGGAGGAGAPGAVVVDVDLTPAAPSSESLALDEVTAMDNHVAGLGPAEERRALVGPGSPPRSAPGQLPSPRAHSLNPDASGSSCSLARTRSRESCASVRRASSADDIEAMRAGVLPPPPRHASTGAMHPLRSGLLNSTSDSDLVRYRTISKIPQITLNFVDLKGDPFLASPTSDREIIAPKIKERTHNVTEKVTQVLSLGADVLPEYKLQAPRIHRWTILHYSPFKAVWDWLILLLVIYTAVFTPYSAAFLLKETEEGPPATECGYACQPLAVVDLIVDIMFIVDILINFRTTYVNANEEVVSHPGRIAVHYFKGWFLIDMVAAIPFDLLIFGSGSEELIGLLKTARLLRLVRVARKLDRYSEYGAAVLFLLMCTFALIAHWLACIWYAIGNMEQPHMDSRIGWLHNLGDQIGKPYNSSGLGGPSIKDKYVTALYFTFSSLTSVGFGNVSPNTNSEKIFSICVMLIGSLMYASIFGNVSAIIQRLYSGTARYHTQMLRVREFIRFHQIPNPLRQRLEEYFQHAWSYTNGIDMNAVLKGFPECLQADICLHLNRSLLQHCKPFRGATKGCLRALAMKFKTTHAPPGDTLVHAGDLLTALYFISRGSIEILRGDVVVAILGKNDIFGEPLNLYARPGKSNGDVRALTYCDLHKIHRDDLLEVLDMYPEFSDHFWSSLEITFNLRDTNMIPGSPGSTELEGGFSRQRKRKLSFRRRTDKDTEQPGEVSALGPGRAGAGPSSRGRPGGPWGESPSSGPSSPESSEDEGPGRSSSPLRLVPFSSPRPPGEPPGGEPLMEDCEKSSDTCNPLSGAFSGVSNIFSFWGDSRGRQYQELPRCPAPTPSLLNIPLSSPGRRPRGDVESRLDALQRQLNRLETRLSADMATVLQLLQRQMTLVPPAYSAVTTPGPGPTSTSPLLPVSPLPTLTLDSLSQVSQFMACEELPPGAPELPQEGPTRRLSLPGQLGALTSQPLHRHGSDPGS

[11] = mouse, in vivo, 30 mg/kg
[12] = mouse, in vivo, po
[13] = in vivo; settings: mouse
[14] = in vitro; settings: African green monkey
[15] = 1 h, pH 7.4
[16] = 1 h, pH 7.4; remark: listed apart in the source
[17] = guinea pig, 1 h, pH 7.4
[18] = 1 h, pH 7.4; remark: listed apart in the source
[19] = 1 h, pH 7.4; remark: listed apart in the source
[20] = 1 h, pH 7.4; remark: listed apart in the source
[21] = read-out: EC50 in the plaque assay format
[22] = read-out: EC90 in the VYR assay format

| Structure (SMILES) | EC50 [1] | EC50 [2] | EC50 [3] | EC50 ([4]; Vero) | EC50 [4] | EC50 [5] | EC50 [6] | EC50 [7] | EC50 [8, 21] | EC50 ([8]; read-out: Plaque Assay EC50) | Sl90 [9] | EC90 ([9]; Vero, read-out: VYR Assay EC90) | EC90 [9, 22] | % Inhibition at 3 uM [10] | CC50 [14] | Percent parent compound remaining at 60 minutes in liver microsomes, Mouse [15] | Percent parent compound remaining at 60 minutes in liver microsomes, Human [16] | Percent parent compound remaining at 60 minutes in liver microsomes, Guinea [17] | Percent parent compound remaining at 60 minutes in liver microsomes, Monkey [18] | Percent parent compound remaining at 60 minutes in liver microsomes, Dog [19] | further results |
| --- | --- | --- | --- | --- | --- | --- | --- | --- | --- | --- | --- | --- | --- | --- | --- | --- | --- | --- | --- | --- | --- |
| Cc1cc2ncc(-c3ccc(OC(C)(C)C)cc3)n2cc1-c1ccc(OC(C)C)cc1 [Example B7, 3-(4-(tert-butoxy)phenyl)-6-(4-isopropoxyphenyl)-7-methylimidazo[1,2-a]pyridine] | 0.9 nM | 0.42 nM | 0.31 nM | 0.16 nM | 0.2 nM | 0.12 nM | > 10000 nM | 0.74 nM | 1 to 3 nM | < 3 nM | >11,000 | < 1 nM | 1 to 3 nM | <10% | 8140 nM |  |  |  |  |  | Oral C-Max [11]: 5.5 µg/mL; Oral T-Max [11]: 2 h; 24 hr liver concentration [12]: 63.4 ug/g liver; 24 hr plasma concentration [12]: 9.1 µg/mL; Vd [13]: 35.7 L/kg; clearance [13]: 13.7 mL/min/kg; AUC(0-t) ([13]; po, 30 mg/kg): 70.4 µg·h/mL; bioavailability ([13]; po, 30 mg/kg): 30% |
| Cc1c(-c2ccc(OC(C)C)cc2)ccc2nnn(-c3ccc(OC(C)C)cc3)c12 [Example C14, 1,6-bis(4-isopropoxyphenyl)-7-methyl-1H-benzo[d][1,2,3]triazole] | 2.44 nM | 0.28 nM | 0.17 nM | 4.7 nM |  |  | > 10000 nM |  |  |  |  |  |  |  | > 100000 nM | >95% | >95% | >95% |  |  |  |
| Cc1cc2ncc(-c3ccc(C(C)(C)O)cc3)n2cc1-c1ccc(OC(C)C)cc1 [Example B8, 2-(4-(6-(4-isopropoxyphenyl)-7-methylimidazo[1,2-a]pyridin-3-yl)phenyl)propan-2-ol] | 2.91 nM | 0.61 nM | 0.76 nM | 0.32 nM | 0.32 nM | 0.94 nM | > 10000 nM | 2.16 nM | 1 to 3 nM | < 3 nM | >9,000 | < 3 nM | 1 to 3 nM | <10% | 27800 nM | 77.5% | 87.6% | 67.7% | 33.7% | 77.57% | Percent parent compound remaining at 60 minutes in liver microsomes, Rat [20]: 93% |
| CC(C)Oc1ccc(-n2nnc3ccc(-c4ccc(C(C)(C)O)cc4)cc32)cc1 [Example C16, 2-(4-(1-(4-isopropoxyphenyl)-1H-benzo[d][1,2,3]triazol-6-yl)phenyl)propan-2-ol] | 3.02 nM | 1.72 nM | 0.45 nM | 3.67 nM |  |  | > 10000 nM |  |  |  |  |  |  |  | 4120 nM | 57.4% | 72.3% | 61.9% |  |  |  |
| Cc1cc2ncn(-c3ccc(OC(C)(C)C)cc3)c2cc1-c1ccc(OC(C)C)cc1 [Example A2, 1-(4-(tert-butoxy)phenyl)-6-(4-isopropoxyphenyl)-5-methyl-1H-benzo[d]imidazole] | 0.38 nM | 0.14 nM | 0.15 nM | 0.15 nM | 0.12 nM | 0.05 nM | > 10000 nM | 0.33 nM | 1 to 3 nM | < 3 nM | >13,000 | < 1 nM | 1 to 3 nM |  | 7300 nM | 93.9% | 95% | >95% | 53% | >95% | Percent parent compound remaining at 60 minutes in liver microsomes, Rat [20]: >95% |
| CC(C)Oc1ccc(-c2cc3c(cc2Cl)nnn3-c2ccc(OC(C)C)cc2)cc1 [Example C11, 5-chloro-1,6-bis(4-isopropoxyphenyl)-1H-benzo[d][1,2,3]triazole] | 2.29 nM | 0.19 nM | 0.1 nM | 0.77 nM | 0.61 nM |  | > 10000 nM | 0.84 nM |  |  |  |  |  | <10% | > 100000 nM | >95% | >95% | >95% |  |  |  |
| Cc1cc2ncn(-c3ccc(OC(C)C)cc3)c2cc1-c1ccc(C(C)(C)O)cc1 [Example A3, 2-(4-(1-(4-isopropoxyphenyl)-5-methyl-1H-benzo[d]imidazol-6-yl)phenyl)propan-2-ol] | 0.75 nM | 0.17 nM | 0.4 nM | 0.24 nM | 0.21 nM |  | > 10000 nM | 0.87 nM |  |  |  |  |  |  | 4500 nM | 25.4% | 89.9% | 67.6% |  |  |  |
| Cc1cc2ncc(-c3ccc(OC(C)C)cc3)n2cc1-c1ccc(C(C)(C)O)cc1 [Example B5, 2-(4-(3-(4-isopropoxyphenyl)-7-methylimidazo[1,2-a]pyridin-6-yl)phenyl)propan-2-ol] | 0.53 nM | 0.16 nM | 0.18 nM | 0.16 nM | 0.1 nM |  | > 10000 nM | 0.88 nM |  |  |  |  |  |  | 3870 nM | 16.4% | 86.7% | 7.4% |  |  |  |
| Cc1cc2ncn(-c3ccc(OC(C)(C)C)cc3)c2cc1-c1ccc(C(C)(C)O)cc1 [Example A1, 2-(4-(1-(4-(tert-butoxy)phenyl)-5-methyl-1H-benzo[d]imidazol-6-yl)phenyl)propan-2-ol] | 0.83 nM | 0.12 nM | 0.87 nM | 0.29 nM | 0.24 nM |  | > 10000 nM | 0.89 nM | 1 to 3 nM | < 3 nM | >33,000 | < 1 nM | 1 to 3 nM | <10% | 37700 nM | 82.7% | 68.3% | >95% | 8.6% | >95% | Percent parent compound remaining at 60 minutes in liver microsomes, Rat [20]: 93.8%; Oral C-Max [11]: 20.4 µg/mL; Oral T-Max [11]: 0.5 h; 24 hr liver concentration [12]: 240.3 ug/g liver; 24 hr plasma concentration [12]: 8.8 µg/mL; Vd [13]: 17.6 L/kg; clearance [13]: 0.8 mL/min/kg; AUC(0-t) ([13]; po, 30 mg/kg): 183 µg·h/mL; bioavailability ([13]; po, 30 mg/kg): 35%; half-life ([13]; po, 30 mg/kg): 17 h |
| Cc1cc2ncc(-c3ccc(OC(C)(C)C)cc3)n2cc1-c1ccc(C(C)(C)O)cc1 [Example B6, 2-(4-(3-(4-(tert-butoxy)phenyl)-7-methylimidazo[1,2-a]pyridin-6-yl)phenyl)propan-2-ol] | 0.7 nM | 0.13 nM | 0.22 nM | 0.16 nM | 0.1 nM | 0.11 nM | > 10000 nM | 0.95 nM |  |  |  |  |  |  | 4320 nM | 81.7% | 81.5% | 61.5% |  |  |  |
